Data: PubChem BioAssay AID623941 (Vanderbilt Specialized Chemistry Center, 2012)
The source made the active and inactive calls.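 How the source made its calls: active means response rises or falls steadily with concentration, forming a dose-response curve as judged by the submitting lab; inactive means the rest.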

Biological target: Muscarinic acetylcholine receptor M2 (Rattus norvegicus) (UniProt P10980)
Assay: rat M2 muscarinic receptor PAM counter-screen, SAR follow-up, selectivity assay for M4 PAM optimization project, CHO cells, Gqi5 chimera, calcium, ACh EC20 (AID 623941)
Conditions: CHO rM2/Gqi5 calcium fluorescence, ACh EC20 potentiation; for % ACh max response: at 30 µM (top of the series)

Chain of Muscarinic acetylcholine receptor M2 (Rattus norvegicus) (P10980 whole entry, looked up): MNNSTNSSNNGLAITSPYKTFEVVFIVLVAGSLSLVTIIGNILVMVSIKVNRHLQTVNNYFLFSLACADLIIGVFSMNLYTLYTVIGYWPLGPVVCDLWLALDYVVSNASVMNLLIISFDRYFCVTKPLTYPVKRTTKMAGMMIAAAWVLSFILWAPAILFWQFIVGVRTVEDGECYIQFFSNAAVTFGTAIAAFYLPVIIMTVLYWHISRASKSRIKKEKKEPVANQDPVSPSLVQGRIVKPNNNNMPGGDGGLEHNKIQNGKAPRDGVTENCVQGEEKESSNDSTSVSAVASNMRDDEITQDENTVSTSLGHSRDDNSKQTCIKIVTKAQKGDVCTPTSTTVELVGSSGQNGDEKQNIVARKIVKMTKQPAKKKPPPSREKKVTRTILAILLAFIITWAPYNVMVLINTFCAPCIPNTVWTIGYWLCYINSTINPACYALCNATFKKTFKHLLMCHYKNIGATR

Compound | % ACh max response | outcome | further results
Cc1nc2sc(C(=O)NCc3nccs3)c(N)c2c(C)c1Cl | inactive |  | 
Cc1nc2sc(C(=O)NCc3cccc(F)c3F)c(N)c2c(C)c1Cl | inactive |  | 
Cc1nc2sc(C(=O)NCCc3ccncc3)c(N)c2c(C)c1Cl | inactive |  | 
COc1ccc(C)c2sc(NC(=O)c3ccncc3)nc12 | inactive |  | 
Cc1nc2sc(C(=O)NCc3ccc4c(c3)OCO4)c(N)c2c(C)c1Cl |  | inactive | 
Cc1nc2sc(C(=O)NCc3ccncn3)c(N)c2c(C)c1Cl | inactive |  | 
Cc1nc2sc(C(=O)NC3CC3)c(N)c2c(C)c1Cl |  |  | EC50: 640 nM

Now from value to compound, other results behind:

% ACh max response | outcome | Compound | further results
 | inactive | Cc1nc2sc(C(=O)NCc3ccccc3)c(N)c2c(C)c1Cl | 
 | inactive | Cc1nc2sc(C(=O)NCc3ccncc3)c(N)c2c(C)c1Cl | 
 | inactive | Cc1nc2sc(C(=O)NCc3cccnc3)c(N)c2c(C)c1Cl | 
